Experimental data taken from the supplement of paper PMC11208160.

Assay: recombinant UMI read abundance after kanamycin selection (control-corrected) (log10(CPM+1)); higher = more efficient recombination; extreme values may be limits of the assay; sequences stand for … in AGTGCAGAGAAAATCGGCCAGTTTTCTCTGCCTGCAGTCCGCATGCCGTGGGACCCCTTGGGTTCTAACCTGTTGCCTAGATTTATGCAGCGGACTGCCTTTCTCCCAAAGTGATAAACCGG…AGGTTGGTTTCACT; site = the 11-nt donor
Outline: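 Values, expressed as log10(CPM+1), derive from recombinant UMI counts converted to CPM, averaged across replicates and scaled by control-derived factors. Plating was with IPTG (0.07 mM) plus kanamycin or unselected, two replicates each. The screen pooled donor and donor-binding-loop pairs for the IS621 bridge recombinase in Escherichia coli.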
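Further: IS621 bridge recombinase in Escherichia coli cells against a fixed T5 target plasmid.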

| Sequence | recombinant UMI read abundance (log10) |
| --- | --- |
| CGATCGACATGGACCGGTTTTCCCGGTAATCCGTATTTGTT (site CGATCGACTAT) | 0.188 |
| CGATCGACATGGACCGGTTTTCCCGGTAATCCGTATTTGTT (site CGATCGACTCA) | 0.0164 |
| CGATCGACATGGACCGGTTTTCCCGGTAATCCGTATTTGTT (site CGATCGACTGA) | 0.668 |
| CGATCGACATGGACCGGTTTTCCCGGTAATCCGTATTTGTT (site CGATCGACTTA) | 0.271 |
| CGATCGACATGGACCGGTTTTCCCGGTAATCCGTATTTGTT (site CGATCGCCTAA) | 0.00955 |
| CGATCGACATGGACCGGTTTTCCCGGTAATCCGTATTTGTT (site CGATCGGCTAA) | 0.00691 |
| CGATCGACATGGACCGGTTTTCCCGGTAATCCGTATTTGTT (site CGATCGTCTAA) | 0.00706 |
| CGATCGACATGGACCGGTTTTCCCGGTAATCCGTATTTGTT (site CGATCTACTAA) | 0.00746 |
| CGATCGACATGGACCGGTTTTCCCGGTAATCCGTATTTGTT (site CGATGGACTAA) | 0.0255 |
| CGATCGACATGGACCGGTTTTCCCGGTAATCCGTATTTGTT (site CGATTGACTAA) | 0.0149 |
| CGATCGACATGGACCGGTTTTCCCGGTAATCCGTATTTGTT (site CGCTCGACTAA) | 0.0137 |
| CGATCGACATGGACCGGTTTTCCCGGTAATCCGTATTTGTT (site CGGTCGACTAA) | 0.012 |
| CGATCGACATGGACCGGTTTTCCCGGTAATCCGTATTTGTT (site CGTTCGACTAA) | 0.0124 |
| CGATCGACATGGACCGGTTTTCCCGGTAATCCGTATTTGTT (site CTATCGACTAA) | 0.0176 |
| CGATCGACATGGACCGGTTTTCCCGGTAATCCGTATTTGTT (site GGATCGACTAA) | 0.0103 |
| CGATCGACATGGACCGGTTTTCCCGGTAATCCGTATTTGTT (site TGATCGACTAA) | 0.00749 |
| CGATCGCCATGGACCGGTTTTCCCGGTAATCCGTATTTGCT (site CGATCATCTAG) | 0 |
| CGATCGCCATGGACCGGTTTTCCCGGTAATCCGTATTTGCT (site CGATCGCCTAG) | 0.27 |
| CGATCGGCATGGACCGGTTTTCCCGGTAATCCGTATTTGTT (site CGATCGACTAA) | 0.00492 |
| CGATCGGCATGGACCGGTTTTCCCGGTAATCCGTATTTGTT (site CGATCGCCTAA) | 0.0111 |
| CGATCGGCATGGACCGGTTTTCCCGGTAATCCGTATTTGTT (site CGATCGGCTAA) | 0.642 |
| CGATCGGCATGGACCGGTTTTCCCGGTAATCCGTATTTGTT (site CGATCGTCTAA) | 0.324 |
| CGATCTTCATGGACCGGTTTTCCCGGTAATCCGTATTTGCA (site CGATCATCTAG) | 0 |
| CGATCTTCATGGACCGGTTTTCCCGGTAATCCGTATTTGCA (site CGATCTTCTTG) | 0.912 |
| CGATGACCATGGACCGGTTTTCCCGGTAATCCGTATTTGGG (site CGAAGACCTCC) | 0.00605 |

| Sequence | recombinant UMI read abundance (log10) |
| --- | --- |
| CGATGACCATGGACCGGTTTTCCCGGTAATCCGTATTTGGG (site CGACGACCTCC) | 0.00326 |
| CGATGACCATGGACCGGTTTTCCCGGTAATCCGTATTTGGG (site CGAGGACCTCC) | 0.0601 |
| CGATGACCATGGACCGGTTTTCCCGGTAATCCGTATTTGGG (site CGATGACCTCC) | 0.0111 |
| CGATGATCATGGACCGGTTTTCCCGGTAATCCGTATTTGAT (site CGATCATCTAG) | 0 |
| CGATGATCATGGACCGGTTTTCCCGGTAATCCGTATTTGAT (site CGATGATCTAT) | 2.44 |
| CGATGCACATGGACCGGTTTTCCCGGTAATCCGTATTTGAT (site CGATGCACTAT) | 2.34 |
| CGATTACCATGGACCGGTTTTCCCGGTAATCCGTATTTGAT (site CGATTACCTAT) | 0 |
| CGATTGGCATGGACCGGTTTTCCCGGTAATCCGTATTTGCT (site CGATTGGCTAG) | 0.768 |
| CGATTGGCATGGACCGGTTTTCCCGGTAATCCGTATTTGCT (site CGCTTGGCTAG) | 0 |
| CGATTGGCATGGACCGGTTTTCCCGGTAATCCGTATTTGCT (site CGGTTGGCTAG) | 0 |
| CGATTGGCATGGACCGGTTTTCCCGGTAATCCGTATTTGCT (site CGTTTGGCTAG) | 0 |
| CGATTTACATGGACCGGTTTTCCCGGTAATCCGTATTTGGC (site CGATTTACTGC) | 0 |
| CGATTTCCATGGACCGGTTTTCCCGGTAATCCGTATTTGTT (site CGATTTCCTAA) | 0.757 |
| CGCAACTCATGGACCGGTTTTCCCGGTAATCCGTATTTGAC (site CGCAACTCTGT) | 2.04 |
| CGCAAGACATGGACCGGTTTTCCCGGTAATCCGTATTTGGT (site CGCAAGACTAC) | 1.19 |
| CGCAATCCATGGACCGGTTTTCCCGGTAATCCGTATTTGAA (site AGCAATCCTTT) | 0.0753 |
| CGCAATCCATGGACCGGTTTTCCCGGTAATCCGTATTTGAA (site CGCAATCCTTT) | 1.27 |
| CGCAATCCATGGACCGGTTTTCCCGGTAATCCGTATTTGAA (site GGCAATCCTTT) | 0.00324 |
| CGCAATCCATGGACCGGTTTTCCCGGTAATCCGTATTTGAA (site TGCAATCCTTT) | 0.00288 |
| CGCACCTCATGGACCGGTTTTCCCGGTAATCCGTATTTGGG (site CGCACCTCTCC) | 0.526 |
| CGCAGACCATGGACCGGTTTTCCCGGTAATCCGTATTTGGG (site CGCAGACCTCC) | 0.0135 |
| CGCAGTACATGGACCGGTTTTCCCGGTAATCCGTATTTGCT (site CGCAGTACTAG) | 1.44 |
| CGCAGTACATGGACCGGTTTTCCCGGTAATCCGTATTTGCT (site CGCCGTACTAG) | 0 |
| CGCAGTACATGGACCGGTTTTCCCGGTAATCCGTATTTGCT (site CGCGGTACTAG) | 0.749 |
| CGCAGTACATGGACCGGTTTTCCCGGTAATCCGTATTTGCT (site CGCTGTACTAG) | 0 |

| Sequence | recombinant UMI read abundance (log10) |
| --- | --- |
| CGCAGTCCATGGACCGGTTTTCCCGGTAATCCGTATTTGAG (site CGCAGTCCTCT) | 0.438 |
| CGCATATCATGGACCGGTTTTCCCGGTAATCCGTATTTGTC (site CACATATCTGA) | 0 |
| CGCATATCATGGACCGGTTTTCCCGGTAATCCGTATTTGTC (site CCCATATCTGA) | 0 |
| CGCATATCATGGACCGGTTTTCCCGGTAATCCGTATTTGTC (site CGCATATCTGA) | 1.86 |
| CGCATATCATGGACCGGTTTTCCCGGTAATCCGTATTTGTC (site CTCATATCTGA) | 0.436 |
| CGCATGTCATGGACCGGTTTTCCCGGTAATCCGTATTTGTT (site CGCATGTCTAA) | 2.52 |
| CGCCCATCATGGACCGGTTTTCCCGGTAATCCGTATTTGCT (site CGATCATCTAG) | 0.57 |
| CGCCCATCATGGACCGGTTTTCCCGGTAATCCGTATTTGCT (site CGCCCATCTAG) | 2.54 |
| CGCCCTACATGGACCGGTTTTCCCGGTAATCCGTATTTGCT (site CGCCATACTAG) | 0 |
| CGCCCTACATGGACCGGTTTTCCCGGTAATCCGTATTTGCT (site CGCCCTACTAG) | 1.28 |
| CGCCCTACATGGACCGGTTTTCCCGGTAATCCGTATTTGCT (site CGCCGTACTAG) | 0.0214 |
| CGCCCTACATGGACCGGTTTTCCCGGTAATCCGTATTTGCT (site CGCCTTACTAG) | 0 |
| CGCCCTCCATGGACCGGTTTTCCCGGTAATCCGTATTTGAT (site CGCCCTCCTAT) | 0.51 |
| CGCCGTACATGGACCGGTTTTCCCGGTAATCCGTATTTGCG (site CGCCGTACTAG) | 0 |
| CGCCGTACATGGACCGGTTTTCCCGGTAATCCGTATTTGCG (site CGCCGTACTCG) | 1.13 |
| CGCCGTACATGGACCGGTTTTCCCGGTAATCCGTATTTGCG (site CGCCGTACTGG) | 0 |
| CGCCGTACATGGACCGGTTTTCCCGGTAATCCGTATTTGCG (site CGCCGTACTTG) | 0.00693 |
| CGCCTAGCATGGACCGGTTTTCCCGGTAATCCGTATTTGTT (site AGCCTAGCTAA) | 0.00606 |
| CGCCTAGCATGGACCGGTTTTCCCGGTAATCCGTATTTGTT (site CGCCTAGCTAA) | 0 |
| CGCCTAGCATGGACCGGTTTTCCCGGTAATCCGTATTTGTT (site GGCCTAGCTAA) | 0.00975 |
| CGCCTAGCATGGACCGGTTTTCCCGGTAATCCGTATTTGTT (site TGCCTAGCTAA) | 0.00877 |
| CGCGATTCATGGACCGGTTTTCCCGGTAATCCGTATTTGGA (site CGCGATTCTTC) | 2.31 |
| CGCGCGCCATGGACCGGTTTTCCCGGTAATCCGTATTTGTT (site CGCGCGCCTAA) | 0.0124 |
| CGCGGCCCATGGACCGGTTTTCCCGGTAATCCGTATTTGTT (site CACGGCCCTAA) | 0.167 |
| CGCGGCCCATGGACCGGTTTTCCCGGTAATCCGTATTTGTT (site CCCGGCCCTAA) | 0.00728 |
